These results are taken from patent US5194424A, “C^63 -amide derivatives of 34-de(acetylglucosaminyl)-34-deoxy-teicoplanin and their use as medicaments against bacteria resistant to glycopeptide antibiotics” (Gruppo Lepetit SpA, priority 1988, dated 1993).

The subject of test [1] is glycopeptide-resistant E. faecalis. The experiment in a line: In vitro MIC against glycopeptide-resistant Enterococci. The class given is cell-based. As to the method:
(§1) In particular, the activity of the compounds of the invention was confirmed through in vitro experiments carried out with clinical isolates resistant to glycopeptide antibiotics such as with Enterococci faecalis, Enterococci faecium, as shown in Table IIa.
(§2) The antibacterial activity is determined in vitro by means of standard
(§3) agardilution tests in microtiter. ISOSENSITEST broth (Oxoid) is used for
(§4) growing Enterococci. Broth cultures are diluted so that the final inoculu
(§5) is about 5 × 10^5 forming units/ml (CFU/ml).

The test system of test [2] is glycopeptide-resistant E. faecium. Described as above. Type of test: cell-based. As to the method:
as §1, §2, §3, §4, §5

For test [3], the system named is clinical isolates of Streptococcus pyogenes. Kind of test: MIC against clinical isolates of Streptococcus pyogenes. The class given is cell-based. On the procedure: (§6) The antibacterial activity, of the compounds of the invention is determined in vitro by means of standard agar-dilution tests in microtiter. ISOSENSITEST broth (Oxoid) and TODD-HEWITT broth (Difco) are used for growing Staphylococci and Streptococci. respectively. Broth cultures are diluted so that the final inoculum is about 10^4 forming units/ml (CFU/ml).

Test [4] deals with Streptococcus pyogenes C 203. Particulars: comparison statement for teicoplanin and prior-art compounds; never lower than; cited from earlier work.
Test [5] has as its system Staphylococcus aureus TOUR. Kind of test: In vitro MIC, standard agar-dilution test in microtiter. As to conditions: ISOSENSITEST broth, inoculum about 10^4 CFU/ml, 18-24 h at 37° C. Type of test: cell-based. On the procedure:
as §6

The test system of test [6] is Staphylococcus epidermidis ATCC 12228. The description is as above. Type of test: cell-based. As to conditions: ISOSENSITEST broth, inoculum about 10^4 CFU/ml, 18-24 h at 37° C. On the procedure: as §6
In test [7] the test system is Streptococcus faecalis ATCC 7080. The description is as above. The class given is cell-based. As to conditions: TODD-HEWITT broth, inoculum about 10^4 CFU/ml, 18-24 h at 37° C. As to the method:
as §6

Test [8] deals with Streptococcus pyogenes C 203. The description is as above. Type of test: cell-based. Particulars: TODD-HEWITT broth, inoculum about 10^4 CFU/ml, 18-24 h at 37° C. As to the method:
as §6

Test [9] deals with Staphylococcus haemolyticus L 602. Described as above. The class given is cell-based. Particulars: ISOSENSITEST broth, inoculum about 10^4 CFU/ml, 18-24 h at 37° C. On the procedure: (§7) The antibacterial activity, of the compounds of the invention is determined in vitro by means of standard agar-dilution tests in microtiter. ISOSENSITEST broth (Oxoid) and TODD-[…] broth (Difco) are used for growing Staphylococci and Streptococci. respectively. Broth cultures are diluted so that the final inoculum is about 10^4 forming units/ml (CFU/ml).

The test system of test [10] is Streptococcus pneumoniae UC 41. The description is as above. Type of test: cell-based. As to conditions: TODD-HEWITT broth, inoculum about 10^4 CFU/ml, 18-24 h at 37° C. As to the method:
as §7

Where [11] appears, read: E. faecium L 1666, ISOSENSITEST broth, inoculum about 5 × 10^5 CFU/ml.

Turning to `CN[C@H](CC(C)C)C(=O)N[C@H]1C(=O)N[C@@H](CC(N)=O)C(=O)N[C@H]2C(=O)N[C@H]3C(=O)N[C@H](C(=O)N[C@H](C(=O)O)c4cc(O)cc(O)c4-c4cc3ccc4O)[C@H](O)c3ccc(c(Cl)c3)Oc3cc2cc(c3O[C@@H]2O[C@H](CO)[C@@H](O)[C@H](O)[C@H]2O[C@H]2C[C@](C)(N)[C@H](O)[C@H](C)O2)Oc2ccc(cc2Cl)[C@H]1O` [VANCO, vancomycin], the MIC is greater than 128 µg/mL in test [1] (Enterococcus faecalis); greater than 128 µg/mL in [1] (Enterococcus faecalis, NCTC12201); greater than 128 µg/mL in [1] (Enterococcus faecalis, NCTC12202); greater than 128 µg/mL in [2] (setting [11]); greater than 128 µg/mL in [2] (Enterococcus faecium); greater than 128 µg/mL in [2] (Enterococcus faecium, NCTC12203).

With teicoplanin, the MIC in test [3] (S. pyogenes strain L-33), in [3] (S. pyogenes strain L-317), in [3] (S. pyogenes strain L-800), in test [3] (S. pyogenes strain L-801), in test [3] (S. pyogenes strain L-802) and in test [3] (S. pyogenes strain L-803) was 0.063 microgram/ml throughout. Moreover, the MIC in [3] (S. pyogenes strain L-804) is on record as 0.063 microgram/ml; in test [3] (S. pyogenes strain L-805), 0.063 microgram/ml; in test [3] (S. pyogenes strain L-1303), 0.063 microgram/ml; in [3] (S. pyogenes strain L-1304), 0.125 microgram/ml; in test [3] (S. pyogenes strain L-1306) it was 0.125 microgram/ml; in test [3] (S. pyogenes strain L-1315), 0.063 microgram/ml. Besides, the MIC in test [3] (S. pyogenes strain L-1316) is 0.063 microgram/ml; in [3] (S. pyogenes strain L-1318) it was 0.063 microgram/ml; in test [3] (S. pyogenes strain L-1319), 0.063 microgram/ml; in test [1] (E. faecalis L 560, ISOSENSITEST broth, inoculum about 5 × 10^5 CFU/ml), greater than 128 µg/mL; in test [1] (E. faecalis NCTC 12201, ISOSENSITEST broth, inoculum about 5 × 10^5 CFU/ml), 128 µg/mL; in test [1] (E. faecalis NCTC 12202, ISOSENSITEST broth, inoculum about 5 × 10^5 CFU/ml), 128 µg/mL. Further, the MIC in test [2] (setting [11]) was greater than 128 µg/mL; in test [2] (E. faecium NCTC 12203, ISOSENSITEST broth, inoculum about 5 × 10^5 CFU/ml), 64 µg/mL; in test [2] (E. faecium NTCT 12204, ISOSENSITEST broth, inoculum about 5 × 10^5 CFU/ml), 64 µg/mL. Moreover, the “MIC against Streptococcus pyogenes” value in test [4] is reported as no less than 0.06 microgram/ml.

Regarding `CC(C)CCCCCCC(=O)N[C@H]1[C@H](Oc2c3cc4cc2Oc2ccc(cc2Cl)CC2NC(=O)C(NC(=O)C4NC(=O)C4NC(=O)C(Cc5ccc(c(Cl)c5)O3)NC(=O)C(N)c3ccc(O)c(c3)Oc3cc(O)cc4c3)c3ccc(O)c(c3)-c3c(O[C@H]4O[C@H](CO)[C@@H](O)[C@H](O)[C@@H]4O)cc(O)cc3C(C(=O)NCCCN(CCCN)CCCN)NC2=O)O[C@H](CO)[C@@H](O)[C@@H]1O` (stereo partly shown) [Compound 33], the MIC worked out at 0.12 microgram/ml in test [5]; 0.004 microgram/ml in test [6]; 0.12 microgram/ml in test [7]; 0.004 microgram/ml in [8]; 0.032 microgram/ml in test [9]; 0.12 microgram/ml in test [10].

With `CC(C)CCCCCCC(=O)N[C@H]1[C@H](Oc2c3cc4cc2Oc2ccc(cc2Cl)CC2NC(=O)C(NC(=O)C4NC(=O)C4NC(=O)C(Cc5ccc(c(Cl)c5)O3)NC(=O)C(N)c3ccc(O)c(c3)Oc3cc(O)cc4c3)c3ccc(O)c(c3)-c3c(O[C@H]4O[C@H](CO)[C@@H](O)[C@H](O)[C@@H]4O)cc(O)cc3C(C(=O)NCCCN(C)C)NC2=O)O[C@H](CO)[C@@H](O)[C@@H]1O` (stereo partly shown) [Compound 6], the MIC in test [5] came out at 2 microgram/ml; in [6], 0.12 microgram/ml; in test [7] it was 2 microgram/ml; in test [8] it was 0.06 microgram/ml; in test [9], 1 microgram/ml; in [10], 0.25 microgram/ml.

For the molecule `CC(C)CCCCCCC(=O)N[C@H]1[C@H](Oc2c3cc4cc2Oc2ccc(cc2Cl)CC2NC(=O)C(NC(=O)C4NC(=O)C4NC(=O)C(Cc5ccc(c(Cl)c5)O3)NC(=O)C(N)c3ccc(O)c(c3)Oc3cc(O)cc4c3)c3ccc(O)c(c3)-c3c(O[C@H]4O[C@H](CO)[C@@H](O)[C@H](O)[C@@H]4O)cc(O)cc3C(C(=O)NCCCNCCO)NC2=O)O[C@H](CO)[C@@H](O)[C@@H]1O` (stereo partly shown) [Compound 7], the MIC in test [5] is recorded as 1 microgram/ml; in [6], 0.06 microgram/ml; in [7] it was 2 microgram/ml; in test [8], 0.032 microgram/ml; in [9], 1 microgram/ml; in test [10], 0.25 microgram/ml.
